Laboratory results published in publication PMC5773651, “Customised in vitro model to detect human metabolism-dependent idiosyncratic drug-induced liver injury” (Archives of Toxicology, 2017).
Read-outs that look alike come from different tables or passages of the source. Marks after values point to notes of the source that are not given here. Blank lines part the entries; values can stand above or below the compound they belong to.

Tests used:
[1] = tested on: HepG2 cells transduced with AdCYP2E1; test: Cell viability (PI), IC50, AdCYP2E1-HepG2; format: cell-based; conditions: Homo sapiens, unit inferred, tested range in µM
Description: (§1) For subculturing purposes, cells were detached by treatment with 0.25% trypsin/0.02% EDTA at 37 °C. For the adenovirus infection studies, cells were seeded in 96-well plates (5000 cells/well) and adenovirus-containing medium was added 48 h later. After 24 h, cells were transferred to the adenovirus-free medium and cultured for an additional 24-h period prior to the incubations performed with the test chemicals. To optimise the expression of the functional enzymes in the adenovirus-transduced HepG2 (Ad-HepG2) cells, different doses (MOI, multiplicity of infection, defined as plaque formation units per cell) of each adenovirus were tested.
(§2) The drugs included in the study were chosen based on previous information about their hepatotoxicity. Information on the potential mechanisms implicated in the toxicity of each compound and the major enzymes involved in their metabolism is summarised in Table 1. HepG2 or Ad-HepG2 (48 h post-infection) cells were exposed for 24 h to eight concentrations of the tested compounds. Each experimental condition was repeated independently three times (with three wells measured each time). The stock solutions of compounds were prepared in DMSO and were conveniently diluted in the culture medium to obtain the desired final concentrations. The final DMSO concentration in the culture medium was 0.5% (v/v), and the control cultures were treated with the same amount of solvent.
(§3) Following treatments, cells were simultaneously loaded with several fluorescent dyes to measure multiple biomarkers of cell toxicity. […] Information about the probes is summarised in Supplementary Table S2.
(§4) After incubating with dyes, cells were imaged by the Scan^R system (Olympus, Germany). Dyes were excited, and their fluorescence was monitored at the excitation and emission wavelengths at appropriate filter settings. The collected images were analysed using the Scan^R analysis module, which allows the simultaneous quantification of subcellular structures that are stained by different fluorescent probes.

[2] = tested on: HepG2 cells co-transduced with AdCYP2E1 and AdCYP1A2; test: HCS hepatotoxicity assay (MEC, TR), AdCYP2E1 + AdCYP1A2 HepG2; format: cell-based, human; conditions: 24 h; for MEC Apoptosis / MEC Calcium / MEC MMP / MEC Mitochondrial superoxide / MEC ROS: unit inferred, tested range in mM
Description: as §1, §2, §3, §4

[3] = tested on: HepG2 cells transduced with AdCYP2E1; conditions: human, 24 h
Description: as §1, §2, §3, §4

[4] = tested on: HepG2 cells transduced with AdGSTM1; conditions: human, 24 h
Description: as §1, §2, §3, §4

HepG2 cells [5] = conditions: human, 24 h
Description: as §1, §2, §3, §4

HepG2 cells [6] = test: Cell viability (PI), IC50, control HepG2 cells; format: cell-based; conditions: Homo sapiens; control non-transduced HepG2; 24 h; unit inferred, tested range in µM; read-out: IC50 (cell viability), C
[7] = cited from earlier work; for Bioactivation / Enzyme: major enzyme(s) involved in the bioactivation (denoted as *) or detoxification of the drug: previous information; for Toxicity (mechanisms of toxicity): ref Ashrafian et al. [2007], Donato et al. [2009], Fromenty and Pessayre [1997], Rolo et al. [2000], Tolosa et al. [2012b]; for DILI category: ref Gustafsson et al. ([2014])
[8] = tested on: HepG2 cells co-transduced with AdCYP2E1, CYP1A2 and AdGSTM1; test: HCS hepatotoxicity assay (MEC, TR), AdCYP2E1 + AdCYP1A2 + AdGSTM1 HepG2; format: cell-based, human; conditions: 24 h; for MEC Apoptosis / MEC Calcium / MEC MMP / MEC Mitochondrial superoxide / MEC ROS: unit inferred, tested range in mM
Description: as §1, §2, §3, §4

[9] = tested on: HepG2 cells co-transduced with AdCYP2E1 and AdGSTM1; test: HCS hepatotoxicity assay (MEC, TR), AdCYP2E1 + AdGSTM1 HepG2; format: cell-based, human; conditions: CYP2E1-10X + GSTM1, 24 h
Description: as §1, §2, §3, §4

[10] = tested on: HepG2 cells transduced with AdCYP2B6; test: Cell viability (PI), IC50, AdCYP2B6-HepG2; format: cell-based; conditions: Homo sapiens, unit inferred, tested range in µM
Description: as §1, §2, §3, §4

[11] = tested on: HepG2 cells transduced with AdCYP2C9; test: Cell viability (PI), IC50, AdCYP2C9-HepG2; format: cell-based; conditions: Homo sapiens, unit inferred, tested range in µM
[12] = ref Atienzar et al. ([2014]), Garside et al. ([2014]), Tolosa et al. ([2012b]); cited from earlier work
[13] = tested on: HepG2 cells transduced with AdCYP2B6; test: HCS hepatotoxicity assay (MEC, TR), AdCYP2B6-HepG2; format: cell-based, human; conditions: 24 h, unit inferred, tested range in mM
Description: as §1
The drugs included in the study were chosen based on previous information about their hepatotoxicity. […] Each experimental condition was repeated independently three times (with three wells measured each time). […]
as §4

Ad-HepG2 and HepG2 cells = format: cell-based, human
Source text: Finally, we explored the toxicity of the amoxycillin/clavulanate combination, one of the most commonly implicated agents in severe idiosyncratic liver injury. Unlike other studied drugs, the hepatotoxicity of amoxycillin/clavulanate has not been related to CYP metabolism.

[14] = ADV CYP2E1 x1, 24 h, read-out: IC50 (cell viability), ADV dose x1
[15] = ADV CYP2E1 x4, 24 h, read-out: IC50 (cell viability), ADV dose x4
[16] = ADV CYP2E1 x10, 24 h, read-out: IC50 (cell viability), ADV dose x10
[17] = unit inferred, tested range in mM
[18] = unit not given, tested range in mM

- IC50 [1, 14]: > 15000 µM
- IC50 [1, 15]: > 15000 µM
- IC50 [1, 16]: 10600 µM
- concentrations needed to significantly alter ROS generation and calcium levels [3]: 4000 to 6000 µM
- MEC Calcium [4]: 10
- MEC MMP [4]: 15
- MEC Mitochondrial superoxide [4]: 6
- MEC ROS [4]: 15
- TR [4]: 3.5
- MEC Calcium (HepG2 cells [5]): 6
- MEC MMP (HepG2 cells [5]): 15
- MEC Mitochondrial superoxide (HepG2 cells [5]): 4
- MEC ROS (HepG2 cells [5]): 10
- TR (HepG2 cells [5]): 3.5
- IC50 (HepG2 cells [6]): > 15000 µM
Compound: CC(=O)Nc1ccc(O)cc1 [Acetaminophen]
- MEC Apoptosis ([2]; CYP2E1-1X + CYP1A2-1X): 1 mM
- MEC Calcium ([2]; CYP2E1-1X + CYP1A2-1X): 6 mM
- MEC MMP ([2]; CYP2E1-1X + CYP1A2-1X): 10 mM
- MEC Mitochondrial superoxide ([2]; CYP2E1-1X + CYP1A2-1X): 1 mM
- MEC ROS ([2]; CYP2E1-1X + CYP1A2-1X): 6 mM
- TR ([2]; CYP2E1-4X + CYP1A2-4X, TR = 100 x Cmax/lowest MEC): 27.8
- MEC Apoptosis ([2]; CYP2E1-4X + CYP1A2-4X): 0.5 mM
- MEC Calcium ([2]; CYP2E1-4X + CYP1A2-4X): 0.5 mM
- MEC MMP ([2]; CYP2E1-4X + CYP1A2-4X): 6 mM
- MEC Mitochondrial superoxide ([2]; CYP2E1-4X + CYP1A2-4X): 0.5 mM
- MEC ROS ([2]; CYP2E1-4X + CYP1A2-4X): 0.5 mM
- concentration that induced significant changes in the ROS generation and calcium levels ([2]; cells co-transduced with AdCYP2E1 and AdCYP1A2, intermediate doses of adenoviruses): 500 µM
- MEC Apoptosis [4]: 4 µM
- MEC Apoptosis (HepG2 cells [5]): 4 µM
- Bioactivation [7]: Yes
- Enzyme: major enzyme(s) involved in the bioactivation (denoted as *) or detoxification of the drug [7]: CYP2E1* (CYP1A2*, CYP3A4*) GST
- Toxicity (mechanisms of toxicity) [7]: OS, AP
- DILI category [7]: DILI reports
- TR ([8]; CYP2E1-1X + CYP1A2-1X + GSTM1, TR = 100 x Cmax/lowest MEC): 3.5
- MEC Apoptosis ([8]; CYP2E1-1X + CYP1A2-1X + GSTM1): 4 mM
- MEC Calcium ([8]; CYP2E1-1X + CYP1A2-1X + GSTM1): 15 mM
- MEC MMP ([8]; CYP2E1-1X + CYP1A2-1X + GSTM1): 15 mM
- MEC Mitochondrial superoxide ([8]; CYP2E1-1X + CYP1A2-1X + GSTM1): 6 mM
- MEC ROS ([8]; CYP2E1-1X + CYP1A2-1X + GSTM1): 15 mM
- MEC Apoptosis ([8]; CYP2E1-4X + CYP1A2-4X + GSTM1): 1 mM
- MEC Calcium ([8]; CYP2E1-4X + CYP1A2-4X + GSTM1): 6 mM
- MEC MMP ([8]; CYP2E1-4X + CYP1A2-4X + GSTM1): 10 mM
- MEC Mitochondrial superoxide ([8]; CYP2E1-4X + CYP1A2-4X + GSTM1): 4 mM
- MEC ROS ([8]; CYP2E1-4X + CYP1A2-4X + GSTM1): 6 mM

- IC50 [1, 14]: 52900 µM
- IC50 [1, 15]: 44500 µM
- IC50 [1, 16]: 46600 µM
- MEC MMP [3]: >50
- MEC Calcium [4]: >50
- MEC MMP [4]: >50
- MEC Mitochondrial superoxide [4]: >50
- MEC ROS [4]: >50
- TR [4]: 0.25
- MEC Calcium (HepG2 cells [5]): 30
- MEC MMP (HepG2 cells [5]): >50
- MEC Mitochondrial superoxide (HepG2 cells [5]): 30
- MEC ROS (HepG2 cells [5]): >50
- TR (HepG2 cells [5]): 0.25
- IC50 (HepG2 cells [6]): 61500 µM
Compound: NNC(=O)c1ccncc1 [Isoniazid]
- MEC Apoptosis [4]: 30 µM
- MEC Apoptosis (HepG2 cells [5]): 30 µM
- Bioactivation [7]: Yes
- Enzyme: major enzyme(s) involved in the bioactivation (denoted as *) or detoxification of the drug [7]: CYP2E1*, GSTM1, NAT2
- Toxicity (mechanisms of toxicity) [7]: MI, OS, AP
- DILI category [7]: Severe
- TR ([9]; TR = 100 x Cmax/lowest MEC): 0.38
- MEC Calcium [9, 17]: 20 mM
- MEC Mitochondrial superoxide [9, 17]: 30 mM
- MEC ROS [9, 17]: > 50 mM
- MEC Apoptosis [9, 18]: 30
- MEC MMP [9, 18]: >50

- IC50 ([10]; ADV CYP2B6 x1, 24 h, read-out: IC50 (cell viability), ADV dose x1): 13300 µM
- IC50 ([10]; ADV CYP2B6 x4, 24 h, read-out: IC50 (cell viability), ADV dose x4): 8600 µM
- IC50 ([10]; ADV CYP2B6 x10, 24 h, read-out: IC50 (cell viability), ADV dose x10): 8700 µM
- MEC Lipids (HepG2 cells [5]): 6
- IC50 (HepG2 cells [6]): 14800 µM
- IC50 ([11]; ADV CYP2C99 x1, 24 h, read-out: IC50 (cell viability), ADV dose x1): 14400 µM
- IC50 ([11]; ADV CYP2C99 x4, 24 h, read-out: IC50 (cell viability), ADV dose x4): 16000 µM
- IC50 ([11]; ADV CYP2C99 x10, 24 h, read-out: IC50 (cell viability), ADV dose x10): 10100 µM
Compound: CCCC(CCC)C(=O)O [Valproic acid]
- Bioactivation [7]: Yes
- Enzyme: major enzyme(s) involved in the bioactivation (denoted as *) or detoxification of the drug [7]: CYP2B6*, CYP2C9* (CYP2E1*, CYP2A6*)
- Toxicity (mechanisms of toxicity) [7]: MI, OS, ST
- Cmax [12]: 166 µM
- MEC ROS ([13]; CYP2B6-4X): 10 mM
- MEC ROS ([13]; CYP2B6-10X): 8 mM

- ROS production (Ad-HepG2 and HepG2 cells): significant increase
Compound: Amoxicillin/clavulanate
